In patent US6943190B2, “Method of using pyruvate and/or its derivatives for the treatment of cytokine-mediated inflammatory conditions” (University of Pittsburgh-of the Commonwealth System of …, priority 2001, dated 2005):

How the values were obtained:
[1] = test system: lethal sepsis caused by peritonitis (cecal perforation); experiment: Cecal ligation and puncture (CLP) peritonitis/sepsis: survival; type: in vivo, Balb/C mice
Protocol: (§1) Animal Experiments. Male 6-8 week old Balb/C mice (20-25 g) were purchased from Harlen Sprague-Dawley (Indianapolis, Ind.) and allowed to acclimate for 7 days housed at 25° C. on a 12 h light/dark cycle. Animals were randomly grouped (10 mice per group) and assigned to a specific experiment. All animal experiments were performed in accordance with the National Institutes of Health Guidelines under protocols approved by the Institutional Animal Care and Use Committee of North Shore University Hospital and New York University Medical School.
Cecal ligation and puncture (CLP). Cecal ligation and puncture (CLP) was performed as described by (Wichterman et al., J. Surg. Res. (1980) 29(2):189-201). Briefly, mice were anesthetized with 20 mg/ml xylazine intramuscularly at a dose of […], a midline incision was performed, and the cecum was isolated. A 6-0 prolene suture ligature was placed at a level 5.0 mm from the cecal tip away from the ileocecal valve. The ligated cecal stump was then punctured once with a 22-gauge needle, and stool extruded (1 mm) to ascertain patency of the puncture site. […] Mortality was recorded for up to 1 week after the procedure; survivors were followed for 3 weeks to ensure no late mortalities had occurred. […]

[2] = test system: lethal endotoxemia (E. coli lipopolysaccharide); experiment: Lethal endotoxemia (LPS) in mice: survival and morbidity; type: in vivo, Balb/C mice; conditions: for survival: P<0.005
Protocol: as §1
Endotoxin shock. Mice were injected with endotoxin (Escherichia coli lipopolysaccharide, LPS 0111:B4; Sigma Chemical Co, St. Louis, Mo.) that was dissolved in sterile pyrogen-free saline at stock concentrations of 10 mg/ml. LPS solutions were sonicated for 20 min immediately prior to use for each experiment. Mice received an LD75 dose of LPS (5 mg/kg, i.p.). Blood was collected at different times after LPS administration, allowed to clot for 2 h at room temperature, then centrifuged for 20 min at 1,500 g. Serum samples were stored at […] prior to analysis. Mortality was recorded for up to 3 weeks after injection to ensure that no additional late deaths occurred.
Ethyl Pyruvate Solution: Ethyl pyruvate was prepared in solution with sodium (130 mM), potassium (4 mM), calcium (2.7 mM), chloride (130 mM), and ethyl pyruvate (28 mM); pH 7.0). For injections in mice solutions were diluted so that each injection volume was 0.4 ml per dose.
The initial evaluation of ethyl pyruvate (EP) was conducted as a therapeutic solution in lethal systemic inflammation in a standard model of murine endotoxemia. Balb/c mice received a single dose of ethyl pyruvate (40 mg ethyl pyruvate/kg mouse) 30 minutes before the onset of lethal endotoxemia (E. coli lipopolysaccharide, LPS, 5 mg LPS/kg, i.p.). Ethyl pyruvate pretreatment protected BALB/c mice from lethal endotoxemia (ethyl pyruvate survival=20/20 versus vehicle control survival=3/20; P<0.005) (FIG. 3A).
The therapeutic efficacy of the delayed administration of ethyl pyruvate after the onset of endotoxemia was assessed. Ethyl pyruvate dosing in endotoxemic mice was initiated 4 hours after the onset of endotoxemia, when clinical signs were already evident, including diarrhea, piloerection, and depressed spontaneous activity (FIG. 4A).

Structure (SMILES): CCOC(=O)C(C)=O [ethyl pyruvate]
- survival ([1]; 40 mg/kg i.p. beginning 24 hours after onset of peritonitis, three weeks of monitoring, vehicle 5/17, P<0.005): 14/17
- protection against death ([1]; lower ethyl pyruvate doses, beginning 24 hours after onset of peritonitis): failed to confer significant protection against death
- clinical signs of morbidity ([2]; delayed treatment beginning 4 hours after LPS): reversed clinical signs of morbidity
- survival ([2]; delayed treatment: 40 mg/kg i.p. at 4, 8, 12, 24 and 30 hours after LPS, vehicle 5/20): 17/20
- clinical manifestations of endotoxin morbidity ([2]; pretreatment 40 mg/kg 30 minutes before LPS 5 mg/kg i.p.): significantly prevented the clinical manifestations of endotoxin morbidity
- survival ([2]; pretreatment: single dose 40 mg/kg i.p. 30 minutes before LPS 5 mg/kg i.p., vehicle 3/20): 20/20
- survival ([2]; pretreatment: single dose 40 mg/kg i.p. 30 minutes before LPS 5 mg/kg i.p., vehicle 3/20, listed as EP): conferred significant protection against lethality
